Test results: patent US9428452B2, “Compounds” (Glaxo Group Limited, priority 2012, dated 2016)
Marks after values point to notes of the source that are not given here.

Assays:
[1] = molecular target: T1, Human RORγ Ligand Binding Domain (RORγ-LBD) (Homo sapiens, UniProt P51449); experiment: Dual Fluorescence Energy Transfer (FRET) assay: co-activator SRC1(2) peptide interaction with RORγ-LBD; assay type: biochemical; conditions: RORγ-LBD / SRC1(2) peptide, read-out: mean pIC50 (converted)
T1 construct: His6 with thrombin site) (N); made in house; host or cells: E. coli BL21(DE3), modified pET21a vector
T1 sequence (P51449 263-518): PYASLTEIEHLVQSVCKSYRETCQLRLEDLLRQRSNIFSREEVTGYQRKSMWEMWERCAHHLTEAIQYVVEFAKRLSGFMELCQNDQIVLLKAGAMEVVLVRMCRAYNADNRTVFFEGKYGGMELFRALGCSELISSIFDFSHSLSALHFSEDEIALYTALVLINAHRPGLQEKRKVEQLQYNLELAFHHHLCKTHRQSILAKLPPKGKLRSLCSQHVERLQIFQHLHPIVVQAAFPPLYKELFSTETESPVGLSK
Description: Dual Fluorescence Energy Transfer (FRET) Assay
This assay is based on the knowledge that nuclear receptors interact with cofactors (transcription factors) in a ligand dependent manner. RORγ is a typical nuclear receptor in that it has an AF2 domain in the ligand binding domain (LBD) which interacts with co-activators.
This assay measures ligand-mediated interaction of the co-activator peptide with the purified bacterial-expressed RORγ ligand binding domain (RORγ-LBD) to indirectly assess ligand binding. RORγ has a basal level of interaction with the co-activator SRC1(2) in the absence of ligand, thus, it is possible to find ligands that inhibit or enhance the RORγ/SRC1(2) interaction.
Human RORγ Ligand Binding Domain (RORγ-LBD) was expressed in E. coli strain BL21(DE3) as an amino-terminal polyhistidine tagged fusion protein. DNA encoding this recombinant protein was sub-cloned into a modified pET21a expression vector (Novagen).
Approximately 50 g E. coli cell pellet was resuspended in 300 mL of lysis buffer (30 mM imidazole pH 7.0 and 150 mM NaCl). Cells were lysed by sonication and cell debris was removed by centrifugation for 30 minutes at 20,000 g at 4° C. […] The clarified lysate was loaded onto a column (XK-26) packed with ProBond Nickel Chelating resin (InVitrogen), pre-equilibrated with 30 mM imidazole pH 7.0 and 150 mM NaCl. After washing to baseline absorbance with the equilibration buffer, the column was developed with a gradient from 30 to 500 mM imidazole pH 7.0. Column fractions containing the RORγ-LBD protein were pooled and concentrated to a volume of 5 mLs. The concentrated protein was loaded onto a Superdex 200 column pre-equilibrated with 20 mM Tris-Cl pH 7.2 and 200 mM NaCl. The fractions containing the desired RORγ-LBD protein were pooled together.
Purified RORγ-LBD was buffer exchanged by exhaustive dialysis [3 changes of at least 20 volumes (>8000×)] against PBS [100 mM NaPhosphate, pH 8 and 150 mM NaCl]. […] The modified RORγ-LBD was dialyzed against 2 buffer changes—TBS pH 8.0 containing 5 mM DTT, 2 mM EDTA and 2% sucrose—each at least 20 times of the volume. The modified protein was distributed into aliquots, frozen on dry ice and stored at −80° C. The biotinylated RORγ-LBD was subjected to mass spectrometric analysis to reveal the extent of modification by the biotinylation reagent.
Biotinylated SRC1(2) solution was prepared by adding an appropriate amount of biotinylated SRC1(2) from the 100 uM stock solution to a buffer containing 10 mM of freshly added DTT from solid to give a final concentration of 40 nM. An appropriate amount of Europium labeled Streptavidin was then added to the biotinylated SRC1(2) solution in a tube to give a final concentration of 10 nM. The tube was inverted gently and incubated for 15 minutes at room temperature. Twenty-fold excess biotin from the 10 mM stock solution was added and the tube was inverted gently and incubated for 10 minutes at room temperature.
Biotinylated RORγ-LBD solution was prepared by adding an appropriate amount of biotinylated RORγ-LBD from the stock solution to a buffer containing 10 mM of freshly added DTT from solid to give a final concentration of 40 nM. An appropriate amount of APC labeled Streptavidin was then added to the biotinylated RORγ-LBD solution in a tube to give a final concentration of 20 nM. The tube was inverted gently and incubated for 15 minutes at room temperature. Twenty-fold excess biotin from the 10 mM stock solution was then added and the tube was inverted gently and incubated for 10 minutes at room temperature.
The reaction mixtures were incubated for 5 minutes. […] The plates were incubated for 1 hour and then read on ViewLux in Lance mode for EU/APC.

[2] = system: IL-17A secreted from antiCD3/CD28 stimulated Peripheral Blood Mononuclear cells (PBMC); experiment: Peripheral Blood Mononucleocyte Cell Assay (PBMC Assay - IL-17); assay type: cell-based; conditions: Homo sapiens, 48 h, IL-17A release, read-out: mean pIC50 (converted)
Experimental: Peripheral Blood Mononucleocvte Cell Assay (PBMC Assay—IL-17) […]
This assay is designed to measure levels of IL-17A secreted from antiCD3/CD28 stimulated frozen Peripheral Blood Mononuclear cells (PBMC) isolated from human blood with the aim of identifying inhibitors of IL-17A release.
2. The compounds for screening are dispensed into a master plate at 10 mM top concentration which are serially diluted 1:3 across 11 points in DMSO, then 500 nL is transferred into a 384-well flat-bottomed Greiner plate to which 50 uL of cell suspension is added: for the single shot screening the highest concentration of compound is 10^−5M; for 11 point full curve dose response studies the highest concentration is 10^−4 M.
As a low control, DMSO (as supplied, for example, by VWR) (final concentration 1%) in column 6 (16 points).
As a high control, 5-(4-fluorophenyl)-2-ureidothiophene-3-carboxamide (obtainable from, for example, Sigma) at a final concentration of 10^−4 M in DMSO should be used in column 18 (16 points).
9. Make the cell suspension at the concentration 8×10^5 cells/mL to give a final number of 40,000 cells/well.
1. Add well mixed CD3/CD28 Dynabeads (as supplied, for example, by Dynal) to achieve ratio bead:cell=2:1 (ie. a dilution of 1 in 20). Mix thoroughly.
2. Dispense the suspension into the 384 Assay Plates using Multidrop (50 uL per well). If the volume of cell suspension is large, mix the suspension after dispensing into every other plate.
3. Cover the plates with the lids and place them to the humidified incubator (37° C., 5% CO2) for 48 hours.
1. Transfer 10 uL of supernatants from assay plates to the MSD plates using Cybiwell. Ensure that all wells are covered with the solution. Tap the plate gently, if some of the wells are not covered with the supernatant.
3. Add 10 uL of MSD IL-17 detecting antibody using multidrop (1 ug/mL in D-PBS without Ca^2+ and Mg^2+ (supplied, for example, by Gibco)).
4. Cover the plates with adhesive foil and incubated with shaking for 3 hours at room temperature
7. Add 35 uL of MSD Read Buffer T×2 using multidrop.
8. Read plates on MSD MA6000 reader using the 384 well plate protocol as per manufacturer's instructions.

IL-17A mRNA expression = experiment: Ex-vivo human skin model, IL-17A mRNA expression; assay type: cell-based; conditions: Th17 cytokine cocktail 24 h, RT-PCR
Experimental: (§1) Fresh ex vivo human skin from healthy bariatric patients, that underwent abdominoplasty skin removal, was de-fatted and dermatomed at 750 μm. Dermatomed skin was incubated twice for 5-10 minutes at room temperature in PBS containing a antibiotic/antimycotic solution: Fungizone (Invitrogen #15290018), PSG (Fisher #BW17718R) and Gentamicin (Invitrogen #15750060). Skin was treated aseptically from this point on. Individual skin samples were obtained by 10 mm punch biopsy and placed in a 0.4 μm PCF membrane transwell (Millicell #PIHP01250) containing 30 μl of a 64% bovine collagen solution. After a 30 minute incubation at 37° C., which allows the collagen solution time to set, skin samples on transwells were transferred to 6-well plates (1 sample per well) and the lower chamber filled with 1 ml complete media (Cornification Media)+hydrocortisone (final concentration of 0.4 μg/ml) with or without test compounds at 10 μM (day −3) and allowed to rest overnight (16-18 h) at 37° C. Next, media was aspirated from the lower chamber, replaced with 1 ml complete media without hydrocortisone and incubated at 37° C. for 1 h. This constituted a ‘wash’ step. Following the hydrocortisone washout, media was again aspirated from the lower chamber and replaced with 1.0 ml complete media without hydrocortisone with or without GSK compounds at 10 μM (day −2). Cultures were incubated at 37° C. in a humidified chamber and media was refreshed one more day (day-1). The following day (day-0), cultures were stimulated for 24 h with a freshly made Th17 cytokine cocktail (CD3, 1 μg/ml, CD28, 2 μg/ml, IL-1b, 10 ng/ml, IL-6, 5 ng/ml, TGFb, 1 ng/ml, IL-21, 10 ng/ml, anti-IL-4, 1 μg/ml and anti-INFg, 1 μg/ml) with or without test compounds at 10 μM. Upon harvest (day +1), skin samples were minced with a razor blade and transferred to 1.5 ml RNAse-free tubes with 1 ml RNAlater solution until later analysis by RT-PCR (stored at −80 C).
(§2) Total RNA was isolated from about 30-40 mg of tissue using Qiagen's (Cat #74106) Mini RNA Isolation kit. Briefly, tissue was homogenized in the Precellys-24 machine using 300 μL of RLT buffer supplemented with 1% 2-Beta-Mercapto-Ethanol at 6300 rpm for 30 seconds for 6 cycles with a 2-minute ice break. 600 μL of water containing Proteinase K was added to the homogenate and digested at 55 C for 15 minutes. Digested tissue was spun down for 3 minutes at 10,000×g and the supernantant was used for RNA isolation using Qiagen's RNeasy mini columns according to manufacturer's protocol. 100 ng of RNA was used as template in a 20 μL PCR volume using Applied Biosciences RNA-to-CT 1 Step kit (AB Catalog #4392938) as well as the specific TaqMan probe for each gene to be quantified. Life Technologies FAM labeled Probes Catalog Numbers are as follows: ACTb=Hs01060665_g1, IL-17A=Hs00174383_m1, IL-17F=Hs00369400_m1, IL-22=Hs01574154_m1. All probes used (except for ACTb) expand an Exon. Applied Biosciences' Master Mix has a ROX dye internal control. OneStepPlus PCR machine was used for both the RT step and the 40 amplification cycles. RNA levels of gene of interest's relative expression were calculated using the Delta Delta CT formula.
(§3) First delta: Normalized to ACTb gene expression
(§4) Second delta: Normalized to sample 13 (Day 0+DMSO) for the gene of interest.

IL-17F mRNA expression = experiment: Ex-vivo human skin model, IL-17F mRNA expression; assay type: cell-based; conditions: Th17 cytokine cocktail 24 h, RT-PCR
Experimental: as §1, §2, §3, §4

IL-22 mRNA expression = experiment: Ex-vivo human skin model, IL-22 mRNA expression; assay type: cell-based; conditions: Th17 cytokine cocktail 24 h, RT-PCR
Experimental: as §1, §2, §3, §4

Molecule `Cc1ccc(N(CC(C)C)S(=O)(=O)c2ccc(OCC3CCOCC3)c(C3CC3)c2)c(C)c1` [Example E21, 3-cyclopropyl-N-(2,4-dimethylphenyl)-N-isobutyl-4-((tetrahydro-2H-pyran-4-yl)methoxy)benzenesulfonamide] has an IC50 [1] of at most 15.8 nM and an IC50 [2] of under 1000 nM.

In the case of `Cc1ccc(N(CC(C)C)S(=O)(=O)c2ccc(OCC3CCOCC3)cc2O)c(C)c1` [Example E26, N-(2,4-dimethylphenyl)-2-hydroxy-N-isobutyl-4-((tetrahydro-2H-pyran-4-yl)methoxy)benzenesulfonamide], the IC50 [1] is reported as at most 15.8 nM.

With `CCc1ccc(N(CC(C)C)S(=O)(=O)c2ccc(C(O)CN3CCOCC3)c(CO)c2)cc1` (racemic) [Example E123, N-(4-ethylphenyl)-4-(1-hydroxy-2-morpholinoethyl)-3-(hydroxymethyl)-N-isobutylbenzenesulfonamide] the IC50 [1] was 31.6 nM, the “Percentage of inhibition of IL-17A mRNA expression” value (IL-17A mRNA expression; Skin Donor 1, compound 10 μM) was 76% * and the “Percentage of inhibition of IL-17A mRNA expression” value (IL-17A mRNA expression; Skin Donor 2, compound 10 μM) was 92% *. For the same molecule, the “Percentage of inhibition of IL-17A mRNA expression” value (IL-17A mRNA expression; Skin Donor 3, compound 10 μM) was 73% *, the “Percentage of inhibition of IL-17A mRNA expression” value (IL-17A mRNA expression; Skin Donor 4, compound 10 μM) was 91% * and the “Percentage of inhibition of IL-17F mRNA expression” value (IL-17F mRNA expression; Skin Donor 1, compound 10 μM) was 55% *. For the same molecule, the “Percentage of inhibition of IL-17F mRNA expression” value (IL-17F mRNA expression; Skin Donor 2, compound 10 μM) was 84% *, the “Percentage of inhibition of IL-17F mRNA expression” value (IL-17F mRNA expression; Skin Donor 3, compound 10 μM) was 65% * and the “Percentage of inhibition of IL-17F mRNA expression” value (IL-17F mRNA expression; Skin Donor 4, compound 10 μM) was 87% *. The “Percentage of inhibition of IL-22 mRNA expression” value (IL-22 mRNA expression; Skin Donor 1, compound 10 μM) was 63% *, the “Percentage of inhibition of IL-22 mRNA expression” value (IL-22 mRNA expression; Skin Donor 2, compound 10 μM) was 57% and the “Percentage of inhibition of IL-22 mRNA expression” value (IL-22 mRNA expression; Skin Donor 3, compound 10 μM) was 50%. For the same molecule, the “Percentage of inhibition of IL-22 mRNA expression” value (IL-22 mRNA expression; Skin Donor 4, compound 10 μM) was 68% *.

Work on `Cc1ccc(N(CC(C)C)S(=O)(=O)c2ccc(OCC3CCOCC3)cc2)c(C)c1` [Example E12] yielded an IC50 [1] of at most 15.8 nM and an IC50 [2] of under 1000 nM.

`Cc1ccc(N(CC(C)C)S(=O)(=O)c2ccc(OCC3CCOCC3)c(Cl)c2)c(C)c1` [Example E20] showed an IC50 [1] of at most 15.8 nM.

`Cc1ccc(N(CC(C)C)S(=O)(=O)c2ccc(OCC3CCOCC3)c(C)c2)c(C)c1` [Example E24] showed an IC50 [1] of at most 15.8 nM.

In the case of `Cc1ccc(N(CC(C)C)S(=O)(=O)c2ccc(OCC3CCOCC3)cc2C)c(C)c1` [Example E25], the IC50 [1] is reported as at most 15.8 nM.

`Cc1ccc(N(CC(C)C)S(=O)(=O)c2cc(F)c(OCC3CCOCC3)c(F)c2)c(C)c1` [Example E23] was tested, and the IC50 [1] was at most 15.8 nM.
